Data published in patent US8163779B2, “Glucokinase activators” (Takeda San Diego, Inc., priority 2006, dated 2012).
pEC50: −log10 of the molar value. Structures can show the parent of a compound that is named as a salt.

molecular target: T1, glucokinase (GK) (Homo sapiens, UniProt P35557); test: enzymatic glucokinase activity assay (ATP consumption, KinaseGlo luminescence); format: biochemical; details: recombinant GK residues 12-465; 5 μM ATP, 5 mM Glucose; Kact = concentration that displays 50% of the maximal increase in GK activity; read-out: pKact
T1 construct: I.D. No. 1 corresponds to residues 12-465 of glucokinase; made in house; host or cells: E. coli DH10b-T1r
T1 sequence (P35557 with tags, fused parts or gaps isoform P35557-2): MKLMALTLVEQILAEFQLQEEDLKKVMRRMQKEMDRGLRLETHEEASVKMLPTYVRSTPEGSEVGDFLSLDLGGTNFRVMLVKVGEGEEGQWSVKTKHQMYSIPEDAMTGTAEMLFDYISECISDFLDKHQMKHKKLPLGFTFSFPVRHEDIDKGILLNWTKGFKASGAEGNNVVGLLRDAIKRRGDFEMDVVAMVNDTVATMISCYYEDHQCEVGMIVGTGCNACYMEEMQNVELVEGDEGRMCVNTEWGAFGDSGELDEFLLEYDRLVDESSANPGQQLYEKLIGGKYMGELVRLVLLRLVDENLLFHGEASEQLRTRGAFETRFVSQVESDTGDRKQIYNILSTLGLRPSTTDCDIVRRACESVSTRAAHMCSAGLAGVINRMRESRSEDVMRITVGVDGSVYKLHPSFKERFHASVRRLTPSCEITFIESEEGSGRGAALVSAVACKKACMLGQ
Outline: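 Activation was scored as ATP consumption, quantified by KinaseGlo luciferase luminescence after a 60 min room-temperature reaction. Reactions contained E. coli-expressed, purified GK, 5 μM ATP, 5 mM glucose, 10 mM MgCl2, 0.01% Brij35 and 2% DMSO at pH 7.2; pKact was fitted non-linearly.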

pEC50	SMILES
< 4.80	COc1cc(C)n(C(CC2CCCCC2)C(=O)Nc2nccs2)c(=O)c1 (stereo not drawn) [Example 2, 3-cyclohexyl-2-(4-methoxy-6-methyl-2-oxopyridin-1(2H)-yl)-N-(thiazol-2-yl)propanamide trifluoroacetic acid salt]
< 4.80	Cc1cc(-c2cc3ccccc3s2)cc(=O)n1[C@@H](CC1CCCCC1)C(=O)Nc1nccs1 [Example 108, (S)-2-(4-(benzo[b]thiophen-2-yl)-6-methyl-2-oxopyridin-1(2H)-yl)-3-cyclohexyl-N-(thiazol-2-yl)propanamide]
4.80 to 5.80	CCCCC(C(=O)Nc1nccs1)n1c(C)cc(S(=O)(=O)C2CCCC2)cc1=O (stereo not drawn) [Example 18, 2-(4-(cyclopentylsulfonyl)-6-methyl-2-oxopyridin-1(2H)-yl)-N-(thiazol-2-yl)hexanamide]
